The values that follow come from ChEMBL document CHEMBL1201862, “PubChem BioAssay data set” (2004).

Common to all, as to assay: growth of human tumour cells (NCI), 48 h
Assay [1] relates to Malme-3M.
Assay [2] deals with TK-10.
Assay [3] deals with SW-620.
The subject of assay [4] is M14.
Assay [5] concerns SR.
Assay [6] concerns HCT-116.
Assay [7] has as its system T47D.
Assay [8] concerns ACHN.
The subject of assay [9] is NCI-H460.
In assay [10] the test system is MDA-MB-231.
Assay [11] concerns SK-MEL-2.
The test system of assay [12] is HCC 2998.
The subject of assay [13] is Hs-578T.
Assay [14] has as its system NCI-H522.
Assay [15] has as its system SNB-75.
The test system of assay [16] is NCI-H23.
Assay [17] concerns SK-MEL-5.
Assay [18] has as its system OVCAR-3.
Assay [19] deals with U-251.

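Test compounds were applied to cells in 96-well plates for 48 hours at 5 doses. Here, GI50 denotes the concentration required for 50% inhibition of growth.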 The source made the active and inactive calls. Cut-off read from the data, not from the text of the source: active = GI50 up to about 1.1 µM and inactive = higher.

Take `N=C(N)NCCN1CC2CCC(CC2)C1`: the GI50 in assay [1], in assay [2], in [3], in assay [4], in [5] and in [6] was > 100 µM (inactive) each time. The GI50 in assay [7], in assay [8], in [9], in assay [10], in assay [11] and in assay [12] was > 100 µM (inactive) each time. Further, the GI50 is 91.4 µM (inactive) in [13]; > 100 µM (inactive) in assay [14]; 19.7 µM (inactive) in assay [15]; > 100 µM (inactive) in [16]; 53.2 µM (inactive) in assay [17]; > 100 µM (inactive) in assay [18]. In addition, in assay [19], the GI50 was > 100 µM (inactive).
Turning to `CC(=O)C(C)(C)CCC(C)(C)C(C)=O`, the GI50 in assay [1], in [2], in assay [3], in assay [4], in [5] and in assay [6] was > 100 µM (inactive) in each case. For the same compound, the GI50 in assay [7], in [8], in assay [9], in assay [10], in assay [11] and in [12] was > 100 µM (inactive) each time. Moreover, the GI50 in [13], in assay [14], in assay [15], in [16], in assay [17] and in [19] was > 100 µM (inactive) each time.
Regarding `COc1cc(C2CC(C)(N3CCCC3)Oc3cc4c(cc32)OCO4)cc(OC)c1OC` (configuration not stated), the GI50 was 0.21 µM (active) in assay [1]; 0.167 µM (active) in assay [3]; 0.394 µM (active) in assay [4]; 0.488 µM (active) in [5]; 0.299 µM (active) in assay [6]; 5.55 µM (inactive) in assay [7]. Besides, the GI50 in assay [8] is 0.69 µM (active); in assay [9] it was 0.288 µM (active); in assay [10] it was 0.145 µM (active); in assay [11] it was 0.408 µM (active); in [12] it was 0.618 µM (active); in assay [13] it was 0.259 µM (active). For the same compound, the GI50 in assay [14] is 0.2 µM (active); in assay [15], 0.0865 µM (active); in assay [17], 0.124 µM (active); in assay [18] it was 0.129 µM (active); in [19], 0.279 µM (active).
As for `FC(F)(F)c1ccc2c(c1)nc(-c1ccc(Cl)cc1)n2CC1CCCN2CCCCC12` (configuration not stated), the GI50 in assay [1] is 15.3 µM (inactive); in [2] it was 14.9 µM (inactive); in assay [3], 18.5 µM (inactive); in [4] it was 14 µM (inactive); in [5], 11.9 µM (inactive); in [6] it was 14.3 µM (inactive). Moreover, the GI50 is 16.7 µM (inactive) in assay [7]; 14.8 µM (inactive) in assay [8]; 16.6 µM (inactive) in [9]; 7.33 µM (inactive) in [10]; 15.9 µM (inactive) in assay [11]; 13.5 µM (inactive) in assay [12]. Also, the GI50 in [13] is 14 µM (inactive); in assay [14] it was 13.2 µM (inactive); in assay [15], 6.84 µM (inactive); in assay [17], 14 µM (inactive); in [18], 18.4 µM (inactive); in assay [19] it was 14.2 µM (inactive).
For the compound `CC(=O)O[C@H]1C(=O)[C@@]2(C)[C@H]([C@H](OC(=O)c3ccccc3)[C@]3(O)C[C@H](OC(=O)[C@H](O)[C@@H](NC(=O)CC(C)C)c4ccccc4)C(C)=C1C3(C)C)[C@]1(OC(C)=O)CO[C@@H]1C[C@@H]2O`, the GI50 in assay [1] is 0.0135 µM (active); in assay [2] it was 0.0383 µM (active); in [3], 0.00289 µM (active); in assay [5], 0.00171 µM (active); in assay [6] it was 0.00167 µM (active); in assay [7] it was 0.00399 µM (active). Also, the GI50 in assay [8] was 0.157 µM (active); in assay [9] it was 0.00334 µM (active); in assay [10], > 10 µM (inactive); in assay [11] it was 0.00239 µM (active); in [12] it was 0.00303 µM (active); in assay [13] it was 0.0018 µM (active). Moreover, the GI50 was 0.00247 µM (active) in assay [14]; < 0.001 µM (active) in assay [15]; 0.00321 µM (active) in [16]; 0.00251 µM (active) in [17]; 0.00879 µM (active) in assay [19].
On to `Cc1cn(C2CC(N=[N+]=[N-])C(COP(=O)(O)OCC3OC(n4cc(F)c(=O)[nH]c4=O)CC3O)O2)c(=O)[nH]c1=O` (configuration not stated), for which the GI50 in assay [2] was > 100 µM (inactive); in assay [3], 4.56 µM (inactive); in [4], 10.9 µM (inactive); in [5], 1.92 µM (inactive); in assay [6], 4.21 µM (inactive); in assay [7] it was > 100 µM (inactive). The GI50 is 0.63 µM (active) in assay [8]; 0.0292 µM (active) in [9]; > 100 µM (inactive) in [10]; > 100 µM (inactive) in [11]; > 100 µM (inactive) in [12]; > 100 µM (inactive) in [13]. The GI50 is > 100 µM (inactive) in [14]; 9.06 µM (inactive) in assay [15]; 4.05 µM (inactive) in [16]; 12.2 µM (inactive) in assay [17]; > 100 µM (inactive) in assay [18]; > 25.5 µM (inactive) in assay [19].
In the case of `Cc1nc(-c2cc3ccccc3oc2=O)cs1`, the GI50 in assay [1] was 7.23 µM (inactive); in assay [2], 37.4 µM (inactive); in assay [3], > 100 µM (inactive); in [4], > 100 µM (inactive); in assay [5] it was 59 µM (inactive); in assay [6], 96.2 µM (inactive). For the same compound, the GI50 in [7] was > 100 µM (inactive); in [8] it was 52.5 µM (inactive); in assay [9], > 100 µM (inactive); in [10] it was 25.1 µM (inactive); in assay [11], 85.3 µM (inactive); in assay [12], > 100 µM (inactive). In addition, the GI50 in [13] was 18.4 µM (inactive); in assay [14], 17 µM (inactive); in assay [15] it was < 0.01 µM (active); in assay [17] it was > 100 µM (inactive); in assay [19], 32 µM (inactive).
Take `CCC(=O)O[C@H]1CC[C@H]2[C@@H]3CCC4=C/C(=N/OC(=O)c5cccc6c(=O)c7ccccc7[nH]c56)CC[C@]4(C)[C@H]3CC[C@]12C`: the GI50 in assay [2] is 54.6 µM (inactive); in assay [3], 32 µM (inactive); in assay [4] it was 24.7 µM (inactive); in assay [5] it was 29.8 µM (inactive); in assay [7], 29.9 µM (inactive); in assay [8], 47.9 µM (inactive). The GI50 is 22.2 µM (inactive) in assay [9]; 88.3 µM (inactive) in assay [10]; 31.6 µM (inactive) in [11]; 21.3 µM (inactive) in assay [12]; 22.4 µM (inactive) in assay [13]; 18.6 µM (inactive) in assay [14]. The GI50 is 54.6 µM (inactive) in assay [15]; 51.3 µM (inactive) in assay [16]; 22.8 µM (inactive) in assay [17]; 18.3 µM (inactive) in assay [18]; 25.6 µM (inactive) in assay [19].
On to `COc1cccc(C2CC(=O)c3cccn32)c1` (configuration not stated), for which the GI50 is > 100 µM (inactive) in assay [2]; > 100 µM (inactive) in assay [3]; > 100 µM (inactive) in assay [4]; > 100 µM (inactive) in assay [5]; > 100 µM (inactive) in assay [6]; 50.2 µM (inactive) in assay [7]. Moreover, the GI50 in [8] was > 100 µM (inactive); in assay [10], 82.6 µM (inactive); in assay [11], > 100 µM (inactive); in assay [12], > 100 µM (inactive); in assay [13], 23.4 µM (inactive); in [14], > 100 µM (inactive). Further, the GI50 in assay [15], in assay [16], in assay [18] and in assay [19] was > 100 µM (inactive) in each case.
On to `COc1ccc(-c2c(=O)[nH]n3c(=S)[nH]c(-c4ccccc4)nc23)cc1OC`, for which the GI50 was 19.2 µM (inactive) in assay [1]; 22.6 µM (inactive) in [2]; 30.1 µM (inactive) in assay [3]; 19.9 µM (inactive) in assay [4]; 6.9 µM (inactive) in assay [5]; 16.6 µM (inactive) in [6]. In addition, the GI50 in assay [7] was 20.2 µM (inactive); in assay [8] it was 23.3 µM (inactive); in assay [9], 29 µM (inactive); in assay [10], 28.6 µM (inactive); in assay [12], 18.5 µM (inactive); in assay [13], 29.7 µM (inactive). For the same compound, the GI50 in assay [14] was 17.5 µM (inactive); in assay [15] it was 24.5 µM (inactive); in assay [16] it was 21.3 µM (inactive); in assay [17], 16.4 µM (inactive); in [19] it was 17.5 µM (inactive).
As for `C=CCNC(=S)N/C=C(\C#N)C(N)=O`, the GI50 in assay [1], in assay [3], in assay [4], in assay [5], in assay [6] and in [7] was > 100 µM (inactive) in each case. The GI50 in [8], in assay [9], in assay [10], in [11], in assay [12] and in [13] was > 100 µM (inactive) in each case. Moreover, the GI50 in assay [14], in assay [15], in assay [16], in [17], in assay [18] and in assay [19] was > 100 µM (inactive) throughout.
